{"source": "patent US12053460B2", "about": "“Inhibitors of intracellular invasion” (Meharry Medical College, priority 2016, dated 2024)", "key": {"P. gingivalis": {"test_system": "P. gingivalis", "conditions": "literature [21]; cited from earlier work"}, "P. gingivalis vesicles": {"test_system": "P. gingivalis vesicles", "assay": "Invasion of P. gingivalis outer membrane vesicles into HOKs (confocal microscopy)", "conditions": "for inhibitory efficiency on internalization of P. gingivalis vesicles (comparison of compounds): vs DMSO control; for reduction of the total number of HOKs with intracellular vesicles: vs HOKs unexposed to compound, P<0.001", "description": "Human oral keratinocytes (HOKs) were purchased from ScienCell Research Laboratories (Carlsbad, CA) and cultured in specific media, according to the manufacturer's instructions. Prior to treatment, HOKs (2×10^4) were seeded and grown overnight in poly-L-lysine-coated 35 mm glass bottom dishes (MatTek Corporation) at 37° C., 5% CO2, then exposed to P. gingivalis 33277 (2×10^6) or its vesicles (100 ng) for 0 or proper experimental times. To examine the role of Alop1 and dynasore in the bacterial invasion, the compounds were added to the medium 10 min prior to infection.\nHOKs were fixed with 3.8% formaldehyde in a sodium phosphate buffer at room temperature for 10 min after treatment, permeabilized with 0.1% Triton X-100 for 10 min, and blocked with 5% bovine serum albumin in PBS for 1 h. HOKs were then immunostained with pan-specific antibodies of P. gingivalis 33277, and α Tubulin or Actin mono-antibodies (Santa Cruz Biotechnology, Dallas, Texas), followed by goat anti-rabbit IgG conjugated to Alex Fluor 546 (Invitrogen). Nuclei were stained with DAPI (Invitrogen). Confocal images were acquired using a Nikon A1R confocal microscope.\nFor infection rate determination, the number of HOKs with intercellular P. gingivalis cells or its vesicles were determined and divided by the total number of HOKs by counting the cells in 30 random areas (5.6 μm×5.6 μm) under the confocal microscope. Moreover, fluorescence intensity was determined in 100 individual cells using imaging software NIS-Elements AR 4.20, which reflects the level of intercellular P. gingivalis and its vesicles in the infected HOKs."}, "actin in HOKs": {"test_system": "actin in HOKs", "assay": "Actin arrangement in HOKs (anti-actin staining, confocal microscopy)", "type": "cell-based, human", "conditions": "treated for 0, 10, 30 min or 2 h"}, "microtubules in HOKs": {"test_system": "microtubules in HOKs", "assay": "Microtubule arrangement in HOKs (anti-α-tubulin staining, confocal microscopy)", "type": "cell-based, human", "conditions": "30 μM"}, "fimA": {"test_system": "fimA", "assay": "Gene expression in P. gingivalis (qRT-PCR)", "conditions": "30 μM, 16 h"}, "P. gingivalis 33277 [1]": {"test_system": "P. gingivalis 33277", "assay": "Exit of intracellular P. gingivalis cells from HOKs", "conditions": "30 μM, 20 h, with gentamicin and metronidazole"}, "P. gingivalis 33277 [2]": {"test_system": "P. gingivalis 33277", "assay": "Invasion of P. gingivalis cells into HOKs (confocal microscopy)", "type": "cell-based, Porphyromonas gingivalis", "conditions": "for P. gingivalis cell entry into HOKs: vs untreated HOKs", "text": "Nuclei were stained with DAPI (Invitrogen)."}, "[3]": {"conditions": "after removal of compounds from growth media"}}, "note": "“Also recorded” adds a separate entry of the source.", "data": [{"smiles": "C=C1[C@@H](C)[C@H]2[C@H](Cc3ccccc3)NC(=O)[C@]23[C@H](OC(C)=O)/C=C/[C@@](C)(O)C(=O)[C@@H](C)C/C=C/[C@H]3[C@@H]1O", "note": "[cytochalasin D, reference compound]", "values": [{"measurement": "P. gingivalis invasion of epithelial cells", "setting": "P. gingivalis", "result": "inhibited P. gingivalis invasion of epithelial cells"}, {"measurement": "inhibitory efficiency on internalization of P. gingivalis vesicles (comparison of compounds)", "setting": "P. gingivalis vesicles; 30 μM, 2 h", "result": "significant inhibitory activity was not observed"}]}, {"smiles": "O=C(N/N=C/c1ccc(O)c(O)c1)c1cc2ccccc2cc1O", "note": "[dynasore]", "values": [{"measurement": "actin arrangement in HOKs", "setting": "actin in HOKs", "result": "alteration of actin arrangement was not detected"}, {"measurement": "reversibility of the effect on microtubule arrangement", "setting": "microtubules in HOKs; [3]", "result": "reversible"}, {"measurement": "start of recovery of microtubule arrangement after compound removal", "setting": "microtubules in HOKs; [3]", "result": 2, "unit": "h"}, {"measurement": "microtubule arrangement in HOKs", "setting": "microtubules in HOKs; observed 30 min after treatment", "result": "microtubules became more condensed and formed a cortical outer shell at the cell membrane"}, {"measurement": "reduction of the total number of HOKs with intracellular vesicles", "setting": "P. gingivalis vesicles; 6 μM, 2 h", "result": 40, "unit": "%"}, {"measurement": "fluorescence intensity of internalized vesicles in HOKs", "setting": "P. gingivalis vesicles; 30 μM, 100 infected HOKs, vs non-exposed HOKs", "result": "significantly lower fluorescence intensity"}, {"measurement": "inhibitory efficiency on internalization of P. gingivalis vesicles (comparison of compounds)", "setting": "P. gingivalis vesicles; 30 μM, 2 h", "result": "highest efficiency"}, {"measurement": "reduction of the total number of HOKs with intracellular vesicles", "setting": "P. gingivalis vesicles; 30 μM, 2 h", "result": "over 95%"}, {"measurement": "inhibitory activity on P. gingivalis vesicle invasion of HOKs, dose dependence", "setting": "P. gingivalis vesicles; different doses, 2 h", "result": "dose-dependent manner"}, {"measurement": "expression of fimA", "setting": "fimA", "result": "specifically inhibited expression of fimA"}, {"measurement": "exit of intracellular P. gingivalis from HOKs", "setting": "P. gingivalis 33277 [1]", "result": "no significant change in the fluorescence intensity; also recorded: able to block the bacterial exit from HOKs"}, {"measurement": "host cell invasion by P. gingivalis", "setting": "P. gingivalis 33277 [2]; at concentrations of 1.2, 6, and 30 μM in vitro", "result": "inhibit host cell invasion"}, {"measurement": "P. gingivalis cell entry into HOKs", "setting": "P. gingivalis 33277 [2]", "result": "effectively block P. gingivalis cell entry into HOKs"}]}, {"smiles": "COC(=O)Nc1nc2ccc(C(=O)c3cccs3)cc2[nH]1", "note": "[nocodazole, reference compound]", "values": [{"measurement": "P. gingivalis invasion of epithelial cells", "setting": "P. gingivalis", "result": "inhibited P. gingivalis invasion of epithelial cells"}, {"measurement": "P. gingivalis cell entry into HOKs", "setting": "P. gingivalis 33277 [2]", "result": "effectively block P. gingivalis cell entry into HOKs"}]}]}
